# Measurements published in ChEMBL document CHEMBL1201862, “PubChem BioAssay data set” (2004).
# Active and inactive are the calls of the source.
# Tests used:
# [1] = target: Mucolipin-3 (Homo sapiens, UniProt Q8TDD5); assay: Dose response cell-based high-throughput screening assay for agonists of the transient receptor potential channel ML3 (TRPML3). [Related pubchem assays: 1526, 1424, 1448 ]; type: functional
# [2] = target: Ion channel NompC (Danio rerio, UniProt Q7T1G6); assay: Fluorescence counterscreen assay for TRPML3 agonists: dose response cell-based high-throughput screening assay to identify agonists of the transient receptor potential channel N1 (TRPN1). [Related pubchem assays: 1526, 1424, 1448 ]; type: functional
# [3] = target: Sphingosine 1-phosphate receptor 3 (Homo sapiens, UniProt Q99500); assay: Dose response cell-based high throughput screening assay for antagonists of the Sphingosine 1-Phosphate Receptor 3 (S1P3). [Related pubchem assays: 1429, 485 ]; type: functional
# [4] = target: 5-hydroxytryptamine receptor 1E (Homo sapiens, UniProt P28566); assay: Counterscreen assay for S1P3 antagonists: Dose response cell-based high throughput screening assay to identify antagonists of the 5-Hydroxytryptamine Receptor Subtype 1E (5HT1E). [Related pubchem assays: 1429, 485 ]; type: functional
# [5] = growth suppression of PTEN-null colon cells, dose response, cell-based, HCT116 PTEN knockout (AID 1047); type: functional;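 further: HCT116 colon tumor cells with PTEN knocked out; cells exposed to compound for 60 hours before readout; potency for loss of cell viability measured by luminescence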
# [6] = growth suppression of beta-catenin-knockout colon cells, dose response, cell-based, HCT116, human colon tumor (AID 1045); type: functional;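 further: HCT116 colon tumor cells with beta catenin knocked out; cells exposed to compound for 60 hours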
# [7] = target: T1, Leucine aminopeptidase (Plasmodium falciparum 3D7, UniProt Q8IL11); assay: P. falciparum M17LAP inhibitors, primary screen, biochemical, fluorogenic H-Leu-NHMec substrate, 1536-well (AID 1619); type: functional
# T1 sequence (Q8IL11 whole entry): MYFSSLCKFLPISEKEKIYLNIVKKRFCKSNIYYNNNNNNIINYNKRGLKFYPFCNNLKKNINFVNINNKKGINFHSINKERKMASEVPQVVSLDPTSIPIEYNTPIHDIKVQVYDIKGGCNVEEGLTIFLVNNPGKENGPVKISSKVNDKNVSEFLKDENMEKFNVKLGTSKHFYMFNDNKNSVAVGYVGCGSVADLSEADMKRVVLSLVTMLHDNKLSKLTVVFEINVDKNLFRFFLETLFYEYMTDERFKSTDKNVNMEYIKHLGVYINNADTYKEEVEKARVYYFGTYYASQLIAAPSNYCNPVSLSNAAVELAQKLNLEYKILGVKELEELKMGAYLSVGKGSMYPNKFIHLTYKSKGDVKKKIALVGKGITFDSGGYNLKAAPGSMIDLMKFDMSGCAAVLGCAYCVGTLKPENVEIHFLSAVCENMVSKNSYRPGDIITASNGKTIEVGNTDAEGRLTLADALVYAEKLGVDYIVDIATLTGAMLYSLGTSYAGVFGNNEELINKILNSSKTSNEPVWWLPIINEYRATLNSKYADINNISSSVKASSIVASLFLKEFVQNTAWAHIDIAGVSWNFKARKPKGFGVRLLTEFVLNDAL
# [8] = enhancers of respiration in Yfh1-depleted yeast, dose response, Friedreich's ataxia, plus single-dose screen (AID 1465); type: functional;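 further: yeast depleted of Yfh1p frataxin homolog grown on glycerol needing respiration; WST-1 tetrazolium dye reduction as measure of cellular dehydrogenase metabolic activity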
# [9] = target: T2, E3 ubiquitin-protein ligase XIAP (Homo sapiens, UniProt P98170); assay: Counter Screen using XIAP-Bir3 for Chemical Antagonists of Bir1/2 domains of IAP-family anti-apoptotic proteins. [Related pubchem assays (depositor defined):AID1018, AID1449, AID1514, AID1638, AID1749, AID1750, AID488957, AID488963]
# [10] = target: T2, E3 ubiquitin-protein ligase XIAP; assay: XIAP antagonists, biochemical, IAP family, fluorescence polarization (AID 1018); type: functional
# [11] = target: T3, Streptokinase A (Streptococcus pyogenes serotype M1, UniProt P10520); assay: Absorbance Microorganism-Based Dose Response Follow up to Identify Inhibitors of Streptokinase Expression. [Related pubchem assays: 1677 (Project Summary), 1915, 1914, 1902 (Retest at Dose), 1900 (Counter Screen), 1662 (Primary HTS)]; type: functional, Streptococcus pyogenes M1 GAS
# T3 sequence (P10520 whole entry): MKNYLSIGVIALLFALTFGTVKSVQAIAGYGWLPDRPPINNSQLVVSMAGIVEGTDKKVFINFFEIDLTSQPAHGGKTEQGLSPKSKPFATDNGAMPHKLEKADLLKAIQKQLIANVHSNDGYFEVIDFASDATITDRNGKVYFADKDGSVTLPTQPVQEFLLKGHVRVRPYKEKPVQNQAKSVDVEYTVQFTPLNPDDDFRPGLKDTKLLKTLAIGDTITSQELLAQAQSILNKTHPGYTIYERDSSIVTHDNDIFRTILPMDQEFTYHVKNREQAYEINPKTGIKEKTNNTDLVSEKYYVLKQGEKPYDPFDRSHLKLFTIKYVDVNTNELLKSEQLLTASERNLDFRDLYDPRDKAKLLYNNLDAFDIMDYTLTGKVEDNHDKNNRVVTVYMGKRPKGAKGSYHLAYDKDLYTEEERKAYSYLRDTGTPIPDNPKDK
# [12] = tested on: Streptococcus; assay: Streptococcus pyogenes growth inhibition counter-screen, dose response, counter-screen for streptokinase expression inhibitor project, luminescence, BacTiter-Glo, strain UMAA2166 (AID 2477); type: functional, organism-based
# [13] = tested on: HeLa; assay: Cytotoxicity counterscreen assay for transcriptional activators of heat shock protein 70 (Hsp70). [Related pubchem assays: 1203, 1252 ]; type: functional; conditions: Homo sapiens;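 further: cells exposed to compound for 16 hours before readout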
# [14] = target: T4, Voltage-gated N-type calcium channel alpha-1B subunit/Amyloid beta A4 precursor protein-binding family A member 1 (Homo sapiens, UniProt Q00975+Q02410); type: protein assay
# [15] = inhibitors of intracellular T. cruzi replication, confirmation, NIH3T3 host cells, beta-gal luminescence (AID 2044); type: functional, cell-based;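 further: intracellular parasites grown in NIH/3T3 mouse fibroblasts as host cells; luminescent beta-galactosidase reporter signal from transgenic T. cruzi replicating inside host cells; inhibitors lower the luminescence signal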
# [16] = tested on: INS1; assay: beta cell apoptosis inhibitors, cytokine rescue, dose response, luminescence, retest (AID 449756); type: functional, cell-based; conditions: Rattus norvegicus;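 further: cell death triggered by IL-1 beta plus TNF-alpha plus IFN-gamma mixture; protective hits raise ATP signal compared with cytokine alone wells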
# [17] = target: T4, Voltage-gated N-type calcium channel alpha-1B subunit/Amyloid beta A4 precursor protein-binding family A member 1; type: protein assay; remark: listed apart in the source
# [18] = HEp-2 cell cytotoxicity, dose response, cytotoxicity control for RSV inhibitor project, HTS (AID 2410); type: functional; conditions: human respiratory syncytial virus
# [19] = target: Heat shock protein HSP 90-alpha (Homo sapiens, UniProt P07900); type: functional, organism-based
# [20] = cytotoxicity toward NIH3T3 fibroblasts, dose response, counter-screen, cell-based, ATP luminescence, mouse fibroblasts (AID 2010); type: functional;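 further: cells exposed to compound for about 90 hours before reading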
# [21] = target: NADPH oxidase 1 (Homo sapiens, UniProt Q9Y5S8); type: functional, cell-based;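 further: Cell-based assay with luminescence read-out, IC50 derived from inhibitor dose-response curves; intracellular ROS from endogenous NOX1 in intact HT29 colon cancer cells; potency of inhibitors that lower the ROS luminescence signal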
# [22] = target: Sphingosine 1-phosphate receptor 2 (Homo sapiens, UniProt O95136); assay: Dose Response Cell Based Assay for Agonists of the S1P2 Receptor of Purchased Analogues. [Related pubchem assays: 729, 843, 854, 736 ]; type: functional
# [23] = target: T5, Aminopeptidase N (Plasmodium falciparum FcB1/Columbia, UniProt O96935); assay: P. falciparum M1AAP inhibitors, biochemical, fluorogenic H-Leu-NHMec substrate, 1536-well (AID 1445); parameters: species or system Plasmodium falciparum 3D7, 3D7
# T5 sequence (O96935 whole entry): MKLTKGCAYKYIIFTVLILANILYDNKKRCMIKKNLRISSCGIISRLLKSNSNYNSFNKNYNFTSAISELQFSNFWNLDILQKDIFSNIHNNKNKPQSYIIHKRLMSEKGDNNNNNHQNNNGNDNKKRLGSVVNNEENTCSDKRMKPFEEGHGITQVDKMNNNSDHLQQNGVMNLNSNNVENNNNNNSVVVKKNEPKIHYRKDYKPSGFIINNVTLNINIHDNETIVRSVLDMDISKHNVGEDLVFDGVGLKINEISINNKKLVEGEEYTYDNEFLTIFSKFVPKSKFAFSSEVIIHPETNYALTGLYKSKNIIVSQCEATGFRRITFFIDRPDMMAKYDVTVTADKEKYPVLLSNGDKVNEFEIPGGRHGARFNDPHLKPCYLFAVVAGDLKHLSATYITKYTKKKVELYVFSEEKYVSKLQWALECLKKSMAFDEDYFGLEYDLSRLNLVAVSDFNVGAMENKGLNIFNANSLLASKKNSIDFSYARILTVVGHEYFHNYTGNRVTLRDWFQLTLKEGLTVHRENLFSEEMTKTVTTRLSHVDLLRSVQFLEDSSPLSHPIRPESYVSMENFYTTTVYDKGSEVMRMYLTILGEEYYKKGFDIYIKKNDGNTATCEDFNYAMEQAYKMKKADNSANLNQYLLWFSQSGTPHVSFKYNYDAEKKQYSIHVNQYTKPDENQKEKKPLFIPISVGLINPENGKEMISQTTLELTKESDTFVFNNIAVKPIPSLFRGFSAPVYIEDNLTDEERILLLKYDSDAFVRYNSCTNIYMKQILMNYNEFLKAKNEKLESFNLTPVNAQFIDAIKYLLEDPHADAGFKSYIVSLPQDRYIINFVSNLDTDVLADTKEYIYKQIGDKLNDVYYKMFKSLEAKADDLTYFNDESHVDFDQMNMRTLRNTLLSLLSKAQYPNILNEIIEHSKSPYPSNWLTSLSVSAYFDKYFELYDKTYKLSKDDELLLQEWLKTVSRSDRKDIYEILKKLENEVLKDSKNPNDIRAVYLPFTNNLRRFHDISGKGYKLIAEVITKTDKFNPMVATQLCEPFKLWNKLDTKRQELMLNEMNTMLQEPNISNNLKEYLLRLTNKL
# [24] = target: T6, Aspartyl aminopeptidase (Plasmodium falciparum 3D7, UniProt Q8I2J3); assay: Counterscreen for inhibitors of M1 and M17 aminopeptidases: QFRET-based biochemical high throughput dose response assay for inhibitors of the Plasmodium falciparum M18 Aspartyl Aminopeptidase (PFM18AAP). [Related PubChem assays: 1619 (Screening assay (M17LAP inhibitors).), 1445 (Screening assay (M1AAP inhibitors).)]
# T6 sequence (Q8I2J3 whole entry): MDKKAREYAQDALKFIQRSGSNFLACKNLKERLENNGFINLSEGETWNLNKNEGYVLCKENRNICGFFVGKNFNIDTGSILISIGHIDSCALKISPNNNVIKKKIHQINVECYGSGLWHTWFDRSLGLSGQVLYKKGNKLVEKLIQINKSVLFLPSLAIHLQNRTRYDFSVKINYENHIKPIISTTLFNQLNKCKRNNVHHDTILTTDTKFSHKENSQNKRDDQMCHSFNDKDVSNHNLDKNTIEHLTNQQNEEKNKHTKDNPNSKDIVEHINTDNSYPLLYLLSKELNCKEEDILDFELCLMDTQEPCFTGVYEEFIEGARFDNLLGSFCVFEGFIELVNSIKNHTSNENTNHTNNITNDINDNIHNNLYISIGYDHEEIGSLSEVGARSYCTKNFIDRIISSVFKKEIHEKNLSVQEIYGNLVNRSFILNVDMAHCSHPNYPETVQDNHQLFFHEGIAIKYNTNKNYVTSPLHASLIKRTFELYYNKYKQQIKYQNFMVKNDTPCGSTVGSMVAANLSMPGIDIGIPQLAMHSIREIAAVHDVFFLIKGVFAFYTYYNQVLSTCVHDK
# [25] = target: Procathepsin L (Homo sapiens, UniProt P07711); assay: cathepsin L inhibitors, dose response, counter-screen for M1/M17 aminopeptidase inhibitor project, biochemical, QFRET, 1536-well (AID 2214)
# [26] = target: T7, Mannose-6-phosphate isomerase (Homo sapiens, UniProt P34949); assay: human PMI inhibitors, high substrate, primary screen, biochemical, fluorescence intensity, high mannose 6-phosphate (AID 1220)
# T7 sequence (P34949 whole entry): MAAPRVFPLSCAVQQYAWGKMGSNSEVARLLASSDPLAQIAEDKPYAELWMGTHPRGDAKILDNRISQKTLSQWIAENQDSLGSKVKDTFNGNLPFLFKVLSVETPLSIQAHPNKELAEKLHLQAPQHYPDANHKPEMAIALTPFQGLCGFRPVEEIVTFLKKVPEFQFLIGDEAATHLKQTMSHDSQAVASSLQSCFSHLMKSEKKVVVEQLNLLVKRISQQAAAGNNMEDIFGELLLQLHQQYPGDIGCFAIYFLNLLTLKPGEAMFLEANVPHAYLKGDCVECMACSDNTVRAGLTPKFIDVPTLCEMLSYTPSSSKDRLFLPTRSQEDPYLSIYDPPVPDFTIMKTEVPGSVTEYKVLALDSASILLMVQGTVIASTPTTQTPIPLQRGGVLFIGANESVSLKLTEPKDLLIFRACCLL
# [27] = target: T7, Mannose-6-phosphate isomerase; assay: inhibitors of human PMI, primary screen, biochemical, fluorescence intensity, coupled assay (AID 1209)
# [28] = tested on: HT-1080; assay: cytotoxicity in HT1080 fibrosarcoma cells, cell-based, fluorescence readout (AID 620); type: functional; conditions: Homo sapiens
# [29] = target: Luciferin 4-monooxygenase (Photinus pyralis, UniProt P08659); assay: Counter Screen for Luciferase-based Assay Positives. [Related pubchem assays: 620, 618, 411 ]
# Luciferin 4-monooxygenase, sequence (P08659 whole entry): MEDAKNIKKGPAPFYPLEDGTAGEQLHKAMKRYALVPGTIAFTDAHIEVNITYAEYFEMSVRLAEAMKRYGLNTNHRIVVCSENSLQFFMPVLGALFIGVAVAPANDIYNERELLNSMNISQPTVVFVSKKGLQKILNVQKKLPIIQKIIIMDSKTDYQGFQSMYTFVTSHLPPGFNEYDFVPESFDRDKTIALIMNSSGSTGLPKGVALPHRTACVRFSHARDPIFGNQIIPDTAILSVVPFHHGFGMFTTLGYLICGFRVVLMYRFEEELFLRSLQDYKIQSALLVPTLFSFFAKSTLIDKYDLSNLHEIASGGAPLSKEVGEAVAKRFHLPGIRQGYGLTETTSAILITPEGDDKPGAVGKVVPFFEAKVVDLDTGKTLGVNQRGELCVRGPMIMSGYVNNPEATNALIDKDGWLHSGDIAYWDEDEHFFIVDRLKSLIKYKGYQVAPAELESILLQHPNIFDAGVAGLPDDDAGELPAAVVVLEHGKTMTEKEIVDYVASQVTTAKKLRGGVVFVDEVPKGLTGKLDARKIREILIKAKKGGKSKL
# T4 sequence (Q00975 whole entry): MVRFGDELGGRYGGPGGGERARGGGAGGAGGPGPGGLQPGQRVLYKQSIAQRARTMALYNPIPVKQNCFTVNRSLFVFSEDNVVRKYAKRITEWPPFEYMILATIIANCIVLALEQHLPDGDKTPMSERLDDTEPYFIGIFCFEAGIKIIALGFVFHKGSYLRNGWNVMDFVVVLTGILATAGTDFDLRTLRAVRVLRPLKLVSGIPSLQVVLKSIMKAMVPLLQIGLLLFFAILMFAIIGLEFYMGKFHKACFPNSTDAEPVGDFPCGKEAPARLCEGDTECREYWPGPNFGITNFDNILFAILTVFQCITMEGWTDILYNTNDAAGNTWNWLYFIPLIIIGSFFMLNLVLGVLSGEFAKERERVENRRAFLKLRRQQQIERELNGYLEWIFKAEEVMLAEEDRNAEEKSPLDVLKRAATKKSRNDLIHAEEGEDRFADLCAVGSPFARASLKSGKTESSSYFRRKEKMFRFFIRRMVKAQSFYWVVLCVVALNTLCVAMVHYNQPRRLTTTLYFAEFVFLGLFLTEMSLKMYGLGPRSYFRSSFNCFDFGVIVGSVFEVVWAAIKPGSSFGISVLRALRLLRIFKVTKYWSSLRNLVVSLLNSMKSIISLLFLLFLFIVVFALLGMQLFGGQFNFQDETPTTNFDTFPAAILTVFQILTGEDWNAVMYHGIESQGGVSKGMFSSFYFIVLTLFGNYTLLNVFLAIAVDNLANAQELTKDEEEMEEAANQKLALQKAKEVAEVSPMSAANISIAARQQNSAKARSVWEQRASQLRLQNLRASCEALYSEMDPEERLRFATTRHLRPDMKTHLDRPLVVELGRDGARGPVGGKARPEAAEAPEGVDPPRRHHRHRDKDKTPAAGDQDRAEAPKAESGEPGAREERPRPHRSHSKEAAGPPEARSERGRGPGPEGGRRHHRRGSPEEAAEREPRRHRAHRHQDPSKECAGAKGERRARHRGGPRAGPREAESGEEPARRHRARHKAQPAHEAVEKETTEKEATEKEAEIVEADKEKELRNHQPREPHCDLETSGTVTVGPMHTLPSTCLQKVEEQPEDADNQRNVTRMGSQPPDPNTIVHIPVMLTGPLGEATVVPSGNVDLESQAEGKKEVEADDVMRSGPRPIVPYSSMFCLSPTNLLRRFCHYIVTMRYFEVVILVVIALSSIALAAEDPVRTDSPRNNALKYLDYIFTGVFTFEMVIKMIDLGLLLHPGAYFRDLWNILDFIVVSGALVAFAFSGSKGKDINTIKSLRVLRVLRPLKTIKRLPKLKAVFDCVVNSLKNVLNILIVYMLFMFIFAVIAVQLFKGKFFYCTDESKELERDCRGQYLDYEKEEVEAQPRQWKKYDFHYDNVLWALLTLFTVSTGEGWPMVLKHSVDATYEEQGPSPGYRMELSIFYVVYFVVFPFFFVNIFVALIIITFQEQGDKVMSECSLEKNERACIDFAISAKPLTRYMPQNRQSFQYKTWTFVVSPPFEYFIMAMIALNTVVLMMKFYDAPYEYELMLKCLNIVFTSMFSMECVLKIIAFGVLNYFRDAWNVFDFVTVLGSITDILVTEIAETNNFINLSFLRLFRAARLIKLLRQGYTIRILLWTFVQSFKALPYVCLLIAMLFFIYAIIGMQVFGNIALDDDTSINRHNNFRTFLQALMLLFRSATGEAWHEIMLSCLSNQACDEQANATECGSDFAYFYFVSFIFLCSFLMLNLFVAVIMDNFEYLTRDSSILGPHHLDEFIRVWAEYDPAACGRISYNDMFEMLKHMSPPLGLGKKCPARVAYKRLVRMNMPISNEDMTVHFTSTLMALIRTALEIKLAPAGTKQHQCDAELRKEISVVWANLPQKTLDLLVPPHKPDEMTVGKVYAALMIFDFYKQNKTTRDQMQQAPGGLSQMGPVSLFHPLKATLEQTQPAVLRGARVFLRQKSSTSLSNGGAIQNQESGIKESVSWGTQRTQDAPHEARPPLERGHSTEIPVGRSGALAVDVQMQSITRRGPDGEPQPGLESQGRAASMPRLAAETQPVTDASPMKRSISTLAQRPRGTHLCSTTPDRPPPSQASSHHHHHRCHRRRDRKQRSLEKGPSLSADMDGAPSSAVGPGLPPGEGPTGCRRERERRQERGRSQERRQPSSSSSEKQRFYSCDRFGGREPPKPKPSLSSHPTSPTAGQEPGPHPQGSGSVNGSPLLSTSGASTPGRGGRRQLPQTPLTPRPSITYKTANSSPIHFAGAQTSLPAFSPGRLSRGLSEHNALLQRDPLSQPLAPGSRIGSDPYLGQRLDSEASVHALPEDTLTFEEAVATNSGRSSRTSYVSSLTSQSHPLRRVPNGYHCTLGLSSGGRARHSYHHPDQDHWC
# T4 sequence (Q02410 whole entry): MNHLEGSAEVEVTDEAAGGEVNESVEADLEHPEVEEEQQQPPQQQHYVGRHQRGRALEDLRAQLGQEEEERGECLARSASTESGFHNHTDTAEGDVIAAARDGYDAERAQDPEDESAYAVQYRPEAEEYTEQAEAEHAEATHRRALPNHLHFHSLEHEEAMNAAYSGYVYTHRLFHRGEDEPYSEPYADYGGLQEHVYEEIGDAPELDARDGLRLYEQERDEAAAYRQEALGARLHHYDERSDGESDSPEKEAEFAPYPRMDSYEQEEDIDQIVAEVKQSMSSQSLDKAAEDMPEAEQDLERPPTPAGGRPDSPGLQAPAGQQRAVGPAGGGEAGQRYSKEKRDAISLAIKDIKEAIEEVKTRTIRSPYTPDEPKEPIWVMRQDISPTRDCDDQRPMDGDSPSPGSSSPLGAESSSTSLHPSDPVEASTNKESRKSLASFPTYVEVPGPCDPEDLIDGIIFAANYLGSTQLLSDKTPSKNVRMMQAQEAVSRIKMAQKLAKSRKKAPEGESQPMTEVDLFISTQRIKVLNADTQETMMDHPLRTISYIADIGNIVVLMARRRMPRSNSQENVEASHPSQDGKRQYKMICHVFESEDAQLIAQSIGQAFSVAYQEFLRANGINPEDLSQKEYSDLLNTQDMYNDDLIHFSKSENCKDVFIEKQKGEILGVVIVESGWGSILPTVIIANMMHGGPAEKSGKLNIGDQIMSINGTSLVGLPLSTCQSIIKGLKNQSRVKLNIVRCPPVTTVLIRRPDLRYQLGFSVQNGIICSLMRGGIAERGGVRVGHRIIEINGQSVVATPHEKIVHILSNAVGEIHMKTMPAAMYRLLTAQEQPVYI
# T2 sequence (P98170 whole entry): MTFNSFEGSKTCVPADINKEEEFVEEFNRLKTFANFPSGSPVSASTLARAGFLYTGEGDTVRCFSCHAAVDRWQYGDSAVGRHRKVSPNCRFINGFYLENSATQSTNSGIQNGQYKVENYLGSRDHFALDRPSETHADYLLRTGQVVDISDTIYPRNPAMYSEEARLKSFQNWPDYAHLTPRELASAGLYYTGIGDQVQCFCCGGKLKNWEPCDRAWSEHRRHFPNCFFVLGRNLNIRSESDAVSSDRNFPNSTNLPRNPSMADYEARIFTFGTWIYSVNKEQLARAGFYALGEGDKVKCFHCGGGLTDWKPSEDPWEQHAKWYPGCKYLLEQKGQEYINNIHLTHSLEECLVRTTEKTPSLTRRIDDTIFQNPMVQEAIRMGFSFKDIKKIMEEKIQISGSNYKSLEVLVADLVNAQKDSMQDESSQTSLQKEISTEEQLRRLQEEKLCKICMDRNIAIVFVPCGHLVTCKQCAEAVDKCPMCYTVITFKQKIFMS
# 5-hydroxytryptamine receptor 1E, sequence (P28566 whole entry): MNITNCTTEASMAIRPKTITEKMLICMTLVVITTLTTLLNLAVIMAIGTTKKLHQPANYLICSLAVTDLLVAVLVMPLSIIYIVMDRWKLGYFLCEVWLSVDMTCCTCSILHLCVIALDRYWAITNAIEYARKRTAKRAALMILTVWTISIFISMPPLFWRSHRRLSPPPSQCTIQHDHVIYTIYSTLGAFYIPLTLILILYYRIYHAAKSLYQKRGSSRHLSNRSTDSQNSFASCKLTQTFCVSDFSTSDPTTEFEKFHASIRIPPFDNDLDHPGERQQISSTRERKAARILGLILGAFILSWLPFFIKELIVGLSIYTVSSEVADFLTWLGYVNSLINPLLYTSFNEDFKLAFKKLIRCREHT
# Sphingosine 1-phosphate receptor 3, sequence (Q99500 whole entry): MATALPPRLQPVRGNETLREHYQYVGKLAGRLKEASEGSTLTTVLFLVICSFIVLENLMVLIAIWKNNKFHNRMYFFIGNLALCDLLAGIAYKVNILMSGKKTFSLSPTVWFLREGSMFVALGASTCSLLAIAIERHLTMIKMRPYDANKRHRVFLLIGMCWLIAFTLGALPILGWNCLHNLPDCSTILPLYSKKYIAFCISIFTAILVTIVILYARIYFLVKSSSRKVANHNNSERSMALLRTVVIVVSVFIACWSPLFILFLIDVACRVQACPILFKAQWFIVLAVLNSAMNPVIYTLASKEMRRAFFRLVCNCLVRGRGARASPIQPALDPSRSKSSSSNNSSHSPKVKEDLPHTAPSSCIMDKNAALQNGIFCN
smiles,measurement,setting,value
Cc1ccccc1S(=O)(=O)c1c(C)cc(C)n(C(C)C)c1=O,EC50,[1],2.44 µM (active)
same,EC50,[2],> 29.9 µM (not active)
O=C(OC(C(=O)Nc1cccc(C(F)(F)F)c1)c1ccccc1)C1CCCCC1 (stereo unspecified),IC50,[3],7.69 µM (active)
same,IC50,[4],11.2 µM (not active)
same,EC50,[5],118 µM (active)
same,EC50,[6],518 µM (active)
O=C(O)CN1C(=O)/C(=C\c2cn(CC(=O)N3CCOCC3)c3ccccc23)SC1=S,IC50,[7],13.1 µM (active)
same,EC50,[8],> 100 µM (active)
O=C(CCN1C(=O)C2C3C=CC(C3)C2C1=O)N1CCN(c2ccccc2F)CC1 (stereo unspecified),IC50,[9],> 100 µM (inactive)
same,IC50,[10],> 100 µM (not active)
CC(C)Oc1nc(-c2ccc(Cl)cc2)nc2ccccc12,EC50,[11],6.9 µM (active)
same,EC50,[12],51.2 µM (active)
N#C/C(=C/c1ccc(N2CCCCCC2)o1)c1ccc(Cl)cc1,CC50,[13],> 99 µM (not active)
same,IC50,[14],4.77 µM (active)
same,EC50,[15],1.81 µM (active)
same,AC50,[16],8.91 µM (active)
same,IC50,[17],> 50 µM (inactive)
same,CC50,[18],16.9 µM (active)
same,AC50,[19],20.4 µM (active)
same,EC50,[20],> 60 µM (inconclusive)
Clc1ccc2c(c1)Nc1ccccc1S2,IC50,[21],0.254 µM (active)
Cc1cc(C(=O)O)c(C)n1Cc1ccccc1,EC50,[22],> 30 µM (not active)
O=C(NCc1cccc(F)c1)C1CCN(S(=O)(=O)Cc2ccccc2)CC1,IC50,[23],1.71 µM (active)
same,IC50,[24],> 73.5 µM (not active)
same,IC50,[25],> 59.6 µM (not active)
CCN1C(=O)c2cccc3cccc1c23,IC50,[26],33.9 µM (active)
same,IC50,[14],20.5 µM (active)
same,IC50,[17],> 50 µM (inactive)
same,IC50,[27],32 µM (active)
C=CCNc1ncnc2c1cnn2-c1ccc(OC)cc1,EC50,[28],> 50 µM (not active)
same,EC50,[29],0.33 µM (active)
